Data as given in patent US20200207989A1, “FLUORESCENT PROBE FOR ALDH3A1 DETECTION” (The University of Tokyo, priority 2016, published 2020).

What was measured:
ALDH3A1 = molecular target: T1, ALDH3A1 (Homo sapiens, UniProt P30838); assay: Kinetic characteristics (Michaelis-Menten Km, Kcat) with ALDH3A1; assay type: biochemical
T1 construct: purchased
T1 sequence (P30838 1-453): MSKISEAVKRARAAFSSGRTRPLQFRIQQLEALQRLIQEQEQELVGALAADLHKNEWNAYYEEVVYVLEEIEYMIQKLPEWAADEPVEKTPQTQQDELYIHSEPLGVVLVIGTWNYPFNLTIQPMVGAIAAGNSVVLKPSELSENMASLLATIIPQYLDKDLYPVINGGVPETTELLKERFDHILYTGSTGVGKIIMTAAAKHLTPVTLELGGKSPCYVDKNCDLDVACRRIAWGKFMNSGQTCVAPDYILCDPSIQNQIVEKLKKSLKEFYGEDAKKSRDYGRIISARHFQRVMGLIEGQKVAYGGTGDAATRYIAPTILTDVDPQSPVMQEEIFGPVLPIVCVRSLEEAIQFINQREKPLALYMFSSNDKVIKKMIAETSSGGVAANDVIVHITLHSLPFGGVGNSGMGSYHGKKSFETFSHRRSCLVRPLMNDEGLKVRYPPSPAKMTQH
Description: Human recombinant ALDH1A1/1A3/3A1 was purchased, and 100 mM of KCL, 2 mM of DTT, 1 mM of NAD(P), 10-100 nM of each ALDH, and 10-80 μM of each compound were mixed in Tris buffer (100 mM, pH 7.5), reacted for 30 minutes at 37° C., an equal amount of acetonitrile added, and the reaction stopped. The reaction solution was analyzed by UPLC/MS/MS (Waters). The UPCL chromatogram was carried out over five minutes at a flow rate of 800 μL/min by a linear gradient from 5% acetonitrile 0.01 M ammonium formate/water to 95% acetonitrile 0.01 M ammonium formate/water. An aldehyde-form and carboxylic acid-form probe were detected by the absorbance at a wavelength of 504 nm, and m/z of the MS spectrum at each peak was confirmed to agree with the expected m/z.
For the reaction, 100 mM of KCL, 2 mM of DTT, 1 mM of NAD(P), and five to six concentrations within the range of 10-100 nM of each ALDH and 0.1-80 μM of each probe were selected, mixed in Tris buffer (100 mM, pH 7.5), and reacted for five minutes at 37° C.; an equal amount of acetonitrile was added, and the reaction was stopped. Detection of the aldehyde-form/carboxylic acid-form probes was carried out using the same method as described above by UPLC/MS/MS. Km and Kcat were calculated by fitting the reaction rate at each probe concentration obtained to the Michaelis-Menten equation. A Kaleida Graph ver. 4.1 (Hulinks, Inc.) was used in fitting.
The Kcat ratio (Kcat of ALDH3A1/Kcat of ALDH1A1) was calculated for probe 1, probe 3, and probe 5 as an indicator of ALDH1A1/ALDH3A1 specificity because the probe reaction rate at the actual probe use concentration is believed to be close to Vmax since Km is relatively small (Table 5).

[1] = HPLC (LC/MS) retention time as measure of hydrophilicity / membrane permeability; assay type: physicochemical; conditions: C18 column, 20% B 2.5 min, 20%-->100% B 5 min, 500 μL/min, neutral conditions, mean±SD of three tests
Description: In the present invention, it is preferable to use the retention time on an HPLC chromatogram as the measure of hydrophilicity.
HPLC conditions: taking solvent A to be 0.01 M ammonium formate/water and solvent B to be 80% acetonitrile 0.01 M ammonium formate/water, chromatography is carried out under conditions of 20% solvent B for 2.5 minutes followed by a 5-minute linear gradient of solvent B from 20% to 100% (flow rate 500 μL/min).
A C18 column (HP 3 μm, inner diameter: 2.1 mm, length: 150 mm, GL Science), for example, can be used suitably as the column.
The water solubility was verified by LC/MS under neutral conditions to compare the membrane permeability of the five probes produced above and ALDEFLUOR. The reaction was stopped after advancing the reaction to the point that each probe was present as both a carboxylic acid form and an aldehyde form using a suitable isoform and concentration of ALDH, and analysis was conducted by LC/MS (Agilent 1200/6130 quadrupole LC/MS system). A C18 column (HP 3 μm, inner diameter: 2.1 mm, length: 150 mm, GL Science) was used as the column. HPLC chromatograms were carried out by 20% B for 2.5 minutes followed by a five-minute linear gradient (flow rate: 500 μL/min) from 20% to 100% B, taking solvent A to be 0.01 M ammonium formate/water and solvent B to be 80% acetonitrile 0.01 M ammonium formate/water. The probe containing BODIPY was detected by the absorbance at a wavelength of 504 nm and the probe containing TG at a wavelength of 495 nm, and m/z of the MS spectrum at each peak was confirmed to agree with the expected m/z. Three independent tests were run, and the mean±SD was calculated. […] Given that imaging of probe 1 was not successful, there was thought to be a threshold at which the membrane permeability changes rapidly between this 6.741 minutes and 7.098 minutes (band in FIG. 2).

[2] = five minutes at 37° C., Tris buffer pH 7.5

## N-(4-formylbenzyl)-3-(1,3-dimethyl-4,4-difluoro-4-bora-3a,4a-diaza-s-indacen-5-yl)-propionamide [Probe 1]
ALDH3A1; [2]
  Kcat ALDH3A1: 1.12 ± 0.08 s⁻¹
  Km: 58.9 ± 7.6 µM
ALDH3A1; indicator of ALDH1A1/ALDH3A1 specificity
  Kcat ratio (Kcat of ALDH3A1/Kcat of ALDH1A1): 0.8
[1]
  Retention Time, Aldehyde form: 8.874 ± 0.000 min
  Retention Time, carboxylate (carboxylic acid form): 7.098 ± 0.001 min
[1]; listed as probe 1
  Retention Time, carboxylate (carboxylic acid form): 7.098 min
